Ten molecules from patent US20240100170A1, “CYCLIC-AMP RESPONSE ELEMENT BINDING PROTEIN (CBP) AND/OR ADENOVIRAL E1A BINDING PROTEIN OF 300 KDA (P300) DEGRADATION COMPOUNDS AND METHODS OF USE” (CULLGEN (SHANGHAI), INC., priority 2020, published 2024) can be followed below.

Test [1] has as its system LNCaP prostate cancer cell. Nature of the test: LNCaP cell viability (CellTiter-Glo). It counts as cell-based. The note with it: Homo sapiens, 72 h; LNCaP cell viability, 3 days, CellTiter-Glo; Table 4. The essentials:
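CellTiter-Glo luminescence measured three days after dosing with a 12-point 3-fold compound dilution series. LNCaP cells seeded at 5000/well in RPMI 1640 with 10% FBS; data normalized to untreated controls and IC50 fitted by nonlinear least-squares regression.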

The target of test [2] is P300 (Homo sapiens, UniProt Q09472). The test is described as follows: percentage of inhibition (degradation) of p300 at 10 nM, Tables 2-4. It counts as cell-based. Details: LNCaP or 22RV1 cells that express CBP/P300 proteins were treated with GNE-781 or the bivalent compounds; endogenous in cells; host or cells: LNCaP or 22RV1 (not given). The conditions noted are these: p300, 10 nM; Table 4; read-out: Degradation (10 nM). The gist of the method: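 Degradation was measured at 10 nM. Cells or tissue were lysed in RIPA with protease and phosphatase inhibitors for 30 min at 4 °C and cleared, and protein was quantified by BCA. Lysates were resolved by SDS-PAGE, detected by chemiluminescent immunoblot, and bands were quantified by densitometry.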
P300, sequence (Q09472 whole entry): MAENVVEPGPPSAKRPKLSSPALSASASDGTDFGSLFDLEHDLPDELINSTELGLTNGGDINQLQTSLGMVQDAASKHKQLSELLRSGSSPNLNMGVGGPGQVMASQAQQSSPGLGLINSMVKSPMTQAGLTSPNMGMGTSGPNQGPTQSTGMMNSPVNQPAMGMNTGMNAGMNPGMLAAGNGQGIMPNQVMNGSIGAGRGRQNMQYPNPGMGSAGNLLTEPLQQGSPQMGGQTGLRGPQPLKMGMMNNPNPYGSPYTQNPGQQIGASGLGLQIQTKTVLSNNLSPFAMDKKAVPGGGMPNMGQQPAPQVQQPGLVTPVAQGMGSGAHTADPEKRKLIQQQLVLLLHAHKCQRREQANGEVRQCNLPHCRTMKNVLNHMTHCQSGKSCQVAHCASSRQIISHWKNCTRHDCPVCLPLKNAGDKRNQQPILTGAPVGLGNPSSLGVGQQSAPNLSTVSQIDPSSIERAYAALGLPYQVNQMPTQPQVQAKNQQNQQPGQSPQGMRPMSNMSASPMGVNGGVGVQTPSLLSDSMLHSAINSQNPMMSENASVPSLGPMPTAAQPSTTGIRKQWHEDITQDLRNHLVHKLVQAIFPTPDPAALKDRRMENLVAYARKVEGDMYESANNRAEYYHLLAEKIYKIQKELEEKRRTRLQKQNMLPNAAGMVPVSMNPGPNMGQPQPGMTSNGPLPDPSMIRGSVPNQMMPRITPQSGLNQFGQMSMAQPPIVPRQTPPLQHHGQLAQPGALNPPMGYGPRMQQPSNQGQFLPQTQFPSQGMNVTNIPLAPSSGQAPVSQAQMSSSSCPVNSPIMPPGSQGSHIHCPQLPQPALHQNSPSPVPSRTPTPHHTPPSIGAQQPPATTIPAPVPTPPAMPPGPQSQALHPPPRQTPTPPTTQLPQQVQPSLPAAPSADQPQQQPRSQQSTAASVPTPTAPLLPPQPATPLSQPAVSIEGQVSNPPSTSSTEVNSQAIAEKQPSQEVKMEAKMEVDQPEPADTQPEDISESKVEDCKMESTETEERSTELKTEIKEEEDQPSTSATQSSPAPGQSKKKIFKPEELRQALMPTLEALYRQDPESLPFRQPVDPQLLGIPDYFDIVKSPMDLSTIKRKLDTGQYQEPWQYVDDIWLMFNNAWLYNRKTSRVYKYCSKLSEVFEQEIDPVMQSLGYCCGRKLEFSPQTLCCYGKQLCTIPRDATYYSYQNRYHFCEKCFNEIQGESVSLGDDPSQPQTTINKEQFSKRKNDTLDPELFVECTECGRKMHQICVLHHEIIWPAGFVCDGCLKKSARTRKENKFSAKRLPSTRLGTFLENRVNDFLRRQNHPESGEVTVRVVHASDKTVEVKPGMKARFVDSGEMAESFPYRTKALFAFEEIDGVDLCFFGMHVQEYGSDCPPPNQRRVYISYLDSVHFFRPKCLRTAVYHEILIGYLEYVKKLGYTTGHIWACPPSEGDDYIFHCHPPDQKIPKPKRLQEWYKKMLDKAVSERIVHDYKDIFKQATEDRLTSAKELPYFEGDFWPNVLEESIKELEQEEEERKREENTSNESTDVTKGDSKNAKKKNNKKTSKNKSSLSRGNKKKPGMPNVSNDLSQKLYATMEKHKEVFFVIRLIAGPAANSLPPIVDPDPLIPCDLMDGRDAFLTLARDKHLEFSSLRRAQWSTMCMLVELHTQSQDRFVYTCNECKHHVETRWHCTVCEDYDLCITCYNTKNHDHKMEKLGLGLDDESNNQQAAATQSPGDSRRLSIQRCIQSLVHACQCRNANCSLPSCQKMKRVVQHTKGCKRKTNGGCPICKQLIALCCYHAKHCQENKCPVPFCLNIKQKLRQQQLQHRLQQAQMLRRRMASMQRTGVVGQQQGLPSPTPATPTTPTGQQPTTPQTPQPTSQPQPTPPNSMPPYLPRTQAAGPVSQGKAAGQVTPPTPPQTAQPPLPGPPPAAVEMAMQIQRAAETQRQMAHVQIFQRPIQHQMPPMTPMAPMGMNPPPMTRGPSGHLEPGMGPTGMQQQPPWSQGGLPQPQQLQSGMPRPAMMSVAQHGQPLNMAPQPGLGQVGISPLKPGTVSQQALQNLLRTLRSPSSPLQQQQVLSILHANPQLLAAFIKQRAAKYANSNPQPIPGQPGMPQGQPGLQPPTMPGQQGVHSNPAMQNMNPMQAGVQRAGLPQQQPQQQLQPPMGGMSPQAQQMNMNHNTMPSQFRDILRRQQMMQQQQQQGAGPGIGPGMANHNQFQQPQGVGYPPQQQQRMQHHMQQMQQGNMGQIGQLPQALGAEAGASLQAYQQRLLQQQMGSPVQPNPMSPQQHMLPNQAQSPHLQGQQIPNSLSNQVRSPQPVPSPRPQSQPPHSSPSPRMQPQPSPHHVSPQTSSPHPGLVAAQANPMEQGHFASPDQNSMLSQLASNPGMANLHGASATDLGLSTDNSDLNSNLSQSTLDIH

As to `CC(=O)N1CCc2c(c(N3CCCc4cc(-c5cnn(C)c5)c(C(F)F)cc43)nn2C2CCN(C(=O)CN3CCN(CCCc4ccc5c(c4)n(C)c(=O)n5C4CCC(=O)NC4=O)CC3)CC2)C1` (centres unmarked) [P-220, 3-(5-(3-(4-(2-(4-(5-Acetyl-3-(7-(difluoromethyl)-6-(1-methyl-1H-pyrazol-4-yl)-3,4-dihydroquinolin-1(2H)-yl)-4,5,6,7-tetrahydro-1H-pyrazolo[4,3-c]pyridin-1-yl)piperidin-1-yl)-2-oxoethyl)piperazin-1-yl)propyl)-3-methyl-2-oxo-2,3-dihydro-1H-benzo[d]imidazol-1-yl)piperidine-2,6-dione], the half-maximal inhibitory concentration (IC50) in test [1] was determined as 15.5 nM. Moreover, the inhibition at 0.01 µM in test [2] is 50 to 80%.

The molecule `CC(=O)N1CCc2c(c(N3CCCc4cc(-c5cnn(C)c5)c(C(F)F)cc43)nn2C2CCN(C(=O)CCN3CCC(CCc4ccc5c(c4)n(C)c(=O)n5C4CCC(=O)NC4=O)CC3)CC2)C1` (centres unmarked) [P-221, 3-(5-(2-(1-(3-(4-(5-acetyl-3-(7-(difluoromethyl)-6-(1-methyl-1H-pyrazol-4-yl)-3,4-dihydroquinolin-1(2H)-yl)-4,5,6,7-tetrahydro-1H-pyrazolo[4,3-c]pyridin-1-yl)piperidin-1-yl)-3-oxopropyl)piperidin-4-yl)ethyl)-3-methyl-2-oxo-2,3-dihydro-1H-benzo[d]imidazol-1-yl)piperidine-2,6-dione] displayed an IC50 in test [1] of 2.5 nM. Further, the inhibition at 0.01 µM in test [2] is over 80%.

Molecule `CC(=O)N1CCc2c(c(N3CCCc4cc(-c5cnn(C)c5)c(C(F)F)cc43)nn2C2CCN(C(=O)CCCN3CCC(CCc4ccc5c(c4)n(C)c(=O)n5C4CCC(=O)NC4=O)CC3)CC2)C1` (centres unmarked) [P-222, 3-(5-(2-(1-(4-(4-(5-acetyl-3-(7-(difluoromethyl)-6-(1-methyl-1H-pyrazol-4-yl)-3,4-dihydroquinolin-1(2H)-yl)-4,5,6,7-tetrahydro-1H-pyrazolo[4,3-c]pyridin-1-yl)piperidin-1-yl)-4-oxobutyl)piperidin-4-yl)ethyl)-3-methyl-2-oxo-2,3-dihydro-1H-benzo[d]imidazol-1-yl)piperidine-2,6-dione] returned a 50% inhibitory concentration (IC50) in test [1] of 1.4 nM. Also, the inhibition at 0.01 µM in test [2] was over 80%.

In test [1], `CC(=O)N1CCc2c(c(N3CCCc4cc(-c5cnn(C)c5)c(C(F)F)cc43)nn2C2CCN(C(=O)CCCN3CCC(C#Cc4cccc5c4ccn5C4CCC(=O)NC4=O)CC3)CC2)C1` (centres unmarked) [P-223, 3-(4-((1-(4-(4-(5-Acetyl-3-(7-(difluoromethyl)-6-(1-methyl-1H-pyrazol-4-yl)-3,4-dihydroquinolin-1(2H)-yl)-4,5,6,7-tetrahydro-1H-pyrazolo[4,3-c]pyridin-1-yl)piperidin-1-yl)-4-oxobutyl)piperidin-4-yl)ethynyl)-1H-indol-1-yl)piperidine-2,6-dione] registered an IC50 of 43.7 nM. Also, the inhibition at 0.01 µM in test [2] fell in the range of 50 to 80%.

In the case of `CC(=O)N1CCc2c(c(N3CCCc4cc(-c5cnn(C)c5)c(C(F)F)cc43)nn2C2CCN(C(=O)CCCN3CCN(CC#Cc4cccc5c4n(C)c(=O)n5C4CCC(=O)NC4=O)CC3)CC2)C1` (centres unmarked) [P-224, 3-(4-(3-(4-(4-(4-(5-acetyl-3-(7-(difluoromethyl)-6-(1-methyl-1H-pyrazol-4-yl)-3,4-dihydroquinolin-1(2H)-yl)-4,5,6,7-tetrahydro-1H-pyrazolo[4,3-c]pyridin-1-yl)piperidin-1-yl)-4-oxobutyl)piperazin-1-yl)prop-1-yn-1-yl)-3-methyl-2-oxo-2,3-dihydro-1H-benzo[d]imidazol-1-yl)piperidine-2,6-dione], the 50% inhibitory concentration (IC50) in test [1] was 9.9 nM. In addition, the inhibition at 0.01 µM in test [2] is over 80%.

In test [1], `CC(=O)N1CCc2c(c(N3CCCc4cc(-c5cnn(C)c5)c(C(F)F)cc43)nn2C2CCN(C(=O)CCCN3CCN(CCCc4cccc5c4n(C)c(=O)n5C4CCC(=O)NC4=O)CC3)CC2)C1` (centres unmarked) [P-225, 3-(4-(3-(4-(4-(4-(5-Acetyl-3-(7-(difluoromethyl)-6-(1-methyl-1H-pyrazol-4-yl)-3,4-dihydroquinolin-1(2H)-yl)-4,5,6,7-tetrahydro-1H-pyrazolo[4,3-c]pyridin-1-yl)piperidin-1-yl)-4-oxobutyl)piperazin-1-yl)propyl)-3-methyl-2-oxo-2,3-dihydro-1H-benzo[d]imidazol-1-yl)piperidine-2,6-dione] yielded a half-maximal inhibitory concentration (IC50) of 43.4 nM. Further, the inhibition at 0.01 µM in test [2] lay within 50 to 80%.

For `CC(=O)N1CCc2c(c(N3CCCc4cc(-c5cnn(C)c5)c(C(F)F)cc43)nn2C2CCN(C(=O)CN3CCC(C#Cc4cccc5c4n(C)c(=O)n5C4CCC(=O)NC4=O)CC3)CC2)C1` (centres unmarked) [P-227, 3-(4-((1-(2-(4-(5-acetyl-3-(7-(difluoromethyl)-6-(1-methyl-1H-pyrazol-4-yl)-3,4-dihydroquinolin-1(2H)-yl)-4,5,6,7-tetrahydro-1H-pyrazolo[4,3-c]pyridin-1-yl)piperidin-1-yl)-2-oxoethyl)piperidin-4-yl)ethynyl)-3-methyl-2-oxo-2,3-dihydro-1H-benzo[d]imidazol-1-yl)piperidine-2,6-dione], the IC50 in test [1] worked out at 1.8 nM. Moreover, the inhibition at 0.01 µM in test [2] is over 80%.

In test [1], `CC(=O)N1CCc2c(c(N3CCCc4cc(-c5cnn(C)c5)c(C(F)F)cc43)nn2C2CCN(C(=O)CN3CCC(CCc4cccc5c4n(C)c(=O)n5C4CCC(=O)NC4=O)CC3)CC2)C1` (centres unmarked) [P-228, 3-(4-(2-(1-(2-(4-(5-acetyl-3-(7-(difluoromethyl)-6-(1-methyl-1H-pyrazol-4-yl)-3,4-dihydroquinolin-1(2H)-yl)-4,5,6,7-tetrahydro-1H-pyrazolo[4,3-c]pyridin-1-yl)piperidin-1-yl)-2-oxoethyl)piperidin-4-yl)ethyl)-3-methyl-2-oxo-2,3-dihydro-1H-benzo[d]imidazol-1-yl)piperidine-2,6-dione] showed a 50% inhibitory concentration (IC50) of 0.3 nM. In addition, the inhibition at 0.01 µM in test [2] was over 80%.

`CC(=O)N1CCc2c(c(N3CCCc4cc(-c5cnn(C)c5)c(C(F)F)cc43)nn2C2CCN(C(=O)CCCN3CCC(C#Cc4cccc5c4n(C)c(=O)n5C4CCC(=O)NC4=O)CC3)CC2)C1` (centres unmarked) [P-229, 3-(4-((1-(4-(4-(5-acetyl-3-(7-(difluoromethyl)-6-(1-methyl-1H-pyrazol-4-yl)-3,4-dihydroquinolin-1(2H)-yl)-4,5,6,7-tetrahydro-1H-pyrazolo[4,3-c]pyridin-1-yl)piperidin-1-yl)-4-oxobutyl)piperidin-4-yl)ethynyl)-3-methyl-2-oxo-2,3-dihydro-1H-benzo[d]imidazol-1-yl)piperidine-2,6-dione] showed a 50% inhibitory concentration (IC50) in test [1] of 0.4 nM. In test [2], the inhibition at 0.01 µM was over 80%.

On to `CC(=O)N1CCc2c(c(N3CCCc4cc(-c5cnn(C)c5)c(C(F)F)cc43)nn2C2CCN(C(=O)CCCN3CCC(CCc4cccc5c4n(C)c(=O)n5C4CCC(=O)NC4=O)CC3)CC2)C1` (centres unmarked) [P-230, 3-(4-(2-(1-(4-(4-(5-Acetyl-3-(7-(difluoromethyl)-6-(1-methyl-1H-pyrazol-4-yl)-3,4-dihydroquinolin-1(2H)-yl)-4,5,6,7-tetrahydro-1H-pyrazolo[4,3-c]pyridin-1-yl)piperidin-1-yl)-4-oxobutyl)piperidin-4-yl)ethyl)-3-methyl-2-oxo-2,3-dihydro-1H-benzo[d]imidazol-1-yl)piperidine-2,6-dione], for which inhibition in test [1] was half-maximal at 17.1 nM (IC50). In test [2], the inhibition at 0.01 µM was over 80%.
